Data reported in article PMC11968843, “Sulphostin-inspired N-phosphonopiperidones as selective covalent DPP8 and DPP9 inhibitors” (Nature Communications, 2025).
Values joined by “and” are separate entries in the source; they are usually repeats but may differ in a detail not shown here. Equal entries are not always repeated. “Also recorded” adds a separate entry of the source.

What was measured:
HeLa wild-type cells = assay: Cell viability assay (MTT), co-treatment with Mitomycin C; type: cell-based; details: for cell viability normalized for each condition seperately to corresponsing [-MMC +inhibitor] control: +MMC co-treatment, individual replicate values (Supplementary Figure 11b)
Protocol: HeLa wild-type (HeLa Flp-In T-REx WT, kind gift from Prof. Matthias Hentze) and HeLa DPP9^KO cells (prepared in-house) were cultured in DMEM (ThermoFisher, USA) supplemented with 10% FBS (PAN Biotech, Germany), 2 mM L-Glutamin (ThermoFisher, USA) and 1% Penicillin/Streptomycin (100 U mL^−1 Penicillin and 100 µg mL^−1 Streptomycin, ThermoFisher, USA). Cells were seeded in 96-well flat-bottom cell culture plates (Greiner, Germany) at a concentration of 5 × 10^3 cells per well (37 °C and 5% CO2). The indicated concentration of Mitomycin C (MMC, Merck) was added to the cells 24 h after seeding, together with 10 µM of the indicated inhibitor. The inhibitors were refreshed every 24 h. Control cells were treated with DMSO.
Cell viability was measured 72 hours after the MMC treatment. For this, the medium was removed and replaced with phenol-red free DMEM (ThermoFisher, USA) containing 0.5 mg mL^−1 MTT (Sigma Aldrich, USA). Cells were incubated for 30 min at 37 °C, 5% CO2. Subsequently, the medium was removed and replaced by DMSO. The plates were shaken on an orbital shaker for 20 min before measuring the MTT signal on a CARIOstar Plus microplate reader (BMT labtech, Germany). Each experiment was performed three times, each in triplicates.

[1] = target: T1, HEK293 cell lysates (proteome-wide targets of probe 9) (Homo sapiens, UniProt P05388); assay: Competitive ABPP / direct target identification with alkyne probe 9 in HEK293 cell lysates; type: binding, H. sapiens; details: protein RPLP0;RPLP0P6
T1 construct: endogenous in cells; host or cells: HEK293 cell lysate

[2] = target: T2, HEK293 cell lysates (proteome-wide targets of probe 9) (Homo sapiens, UniProt P0DMV8); assay: as above; type: binding, H. sapiens; details: protein HSPA1A;HSPA1B
T2 construct: endogenous in cells; host or cells: HEK293 cell lysate

PREP = target: T3, PREP (Homo sapiens, UniProt P48147); assay: PREP biochemical inhibition assay (GP-AMC substrate, IC50); details: for IC50: GP-AMC 2 mM, 10 nM enzyme, 45 min pre-incubation at 30 °C; for PREP activity: individual replicates
T3 construct: purchased Sigma Aldrich, USA
T3 sequence (P48147 1-710): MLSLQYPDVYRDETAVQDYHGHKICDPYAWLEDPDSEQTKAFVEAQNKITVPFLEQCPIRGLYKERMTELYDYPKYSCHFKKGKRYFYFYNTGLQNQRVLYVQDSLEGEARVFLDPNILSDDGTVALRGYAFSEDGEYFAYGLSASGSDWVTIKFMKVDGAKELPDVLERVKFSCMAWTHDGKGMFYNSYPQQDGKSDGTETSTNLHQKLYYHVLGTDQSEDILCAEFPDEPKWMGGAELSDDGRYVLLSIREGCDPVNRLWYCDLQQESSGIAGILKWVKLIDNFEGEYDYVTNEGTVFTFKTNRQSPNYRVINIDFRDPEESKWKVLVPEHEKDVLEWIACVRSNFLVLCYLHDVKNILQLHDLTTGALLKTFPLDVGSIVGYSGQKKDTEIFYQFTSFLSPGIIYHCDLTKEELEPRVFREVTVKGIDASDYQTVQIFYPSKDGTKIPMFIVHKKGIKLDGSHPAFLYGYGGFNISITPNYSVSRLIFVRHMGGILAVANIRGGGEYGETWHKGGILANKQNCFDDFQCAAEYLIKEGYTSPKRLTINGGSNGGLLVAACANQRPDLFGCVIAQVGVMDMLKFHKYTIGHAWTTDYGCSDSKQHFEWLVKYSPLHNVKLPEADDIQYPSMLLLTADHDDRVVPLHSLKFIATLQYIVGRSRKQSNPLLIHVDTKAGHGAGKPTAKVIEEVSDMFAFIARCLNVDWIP
Protocol: Enzyme activity of DPP4, DPP8, DPP9 (Proteros Biostructures GmbH, Germany) and PREP (Sigma Aldrich, USA) was determined by measuring the initial velocity of AMC release from the fluorogenic substrate GP-AMC (Sigma Aldrich, USA) using a Tecan Spark® 10 M multimode microplate reader (Tecan Group Ltd., Switzerland) in activity buffer (20 mM HEPES/KOH pH 7.3, 110 mM potassium acetate, 2 mM Mg acetate, 0.5 mM EGTA, 0.02% Tween 20, supplemented with 1 mM DTT) and a final volume of 20 μL for maximal 60 min at 30 °C. Prior to activity measurement, 10 nM enzyme was incubated for 45 min at 30 °C and gentle shaking with the inhibitor compounds in concentrations ranging from 0 to 100 μM. The compounds were dissolved in DMSO and diluted in activity buffer (final DMSO concentration: 1%). […]. IC50 values were calculated using Graph-Pad Prism v10.2.3 using the equation: [Inhibitor] vs. response—Variable slope (four parameters). All measurements were performed in triplicates and error bars represent standard errors of the fit.

[3] = target: T4, DPP9-BRCA2 interaction in HeLa wild-type cells (Homo sapiens, UniProt Q86TI2); assay: Proximity ligation assay (PLA) of MMC-induced DPP9-BRCA2 interaction; type: cell-based; details: for 95% confidence interval of difference: compound vs. +Ctrl., Unpaired two-sided t-test
T4 construct: endogenous in cells; host or cells: HeLa wild-type (HeLa Flp-In T-REx WT)
Protocol: HeLa wild-type cells were cultured as described above. Cells were seeded on coverslips in 24‐well plates (Greiner, Germany) at a concentration of 2 × 10^4 cells per well (37 °C and 5% CO2). To induce a DPP9-BRCA2 interaction, 300 nM MMC was added to the cells 8 h after seeding and for a total incubation time of 24 h. Indicated Inhibitors (10 µM) were added 1 h prior to cell fixation. Cells were fixed with 4% formaldehyde in PBS for 10 min and permeabilized with 0.2% Triton‐X‐100 in PBS for 5 min. The proximity ligation assay (PLA) was performed using the Duolink in situ PLA Kit (Sigma Aldrich, USA). Briefly, cells were washed with PBS and blocked with Duolink Blocking solution for 60 min at 37 °C. […] Antibody control coverslips were treated with only one primary antibody to estimate background staining in each experiment. Coverslips were washed and treated with PLA reagents according to the manufacturers protocol. Cells were mounted in DAKO with DAPI fluorescent mounting medium and analyzed using an LSM 710 confocal microscope, 63x NA 1.4 oil immersion objective (Zeiss, Germany). Images were processed using Zen black v2.3 (Zeiss, Germany) and subsequently analyzed using the Duolink ImageTool Setup 1.0.1.2 (Sigma Aldrich, USA).

[4] = Figure 5d S11a, + Ctrl. [+MMC] vs. compound [+MMC], Tukey's multiple comparisons test
[5] = Figure S11b, Ctrl. vs. compound, Uncorrected Fisher's LSD

T4 sequence (Q86TI2 whole entry): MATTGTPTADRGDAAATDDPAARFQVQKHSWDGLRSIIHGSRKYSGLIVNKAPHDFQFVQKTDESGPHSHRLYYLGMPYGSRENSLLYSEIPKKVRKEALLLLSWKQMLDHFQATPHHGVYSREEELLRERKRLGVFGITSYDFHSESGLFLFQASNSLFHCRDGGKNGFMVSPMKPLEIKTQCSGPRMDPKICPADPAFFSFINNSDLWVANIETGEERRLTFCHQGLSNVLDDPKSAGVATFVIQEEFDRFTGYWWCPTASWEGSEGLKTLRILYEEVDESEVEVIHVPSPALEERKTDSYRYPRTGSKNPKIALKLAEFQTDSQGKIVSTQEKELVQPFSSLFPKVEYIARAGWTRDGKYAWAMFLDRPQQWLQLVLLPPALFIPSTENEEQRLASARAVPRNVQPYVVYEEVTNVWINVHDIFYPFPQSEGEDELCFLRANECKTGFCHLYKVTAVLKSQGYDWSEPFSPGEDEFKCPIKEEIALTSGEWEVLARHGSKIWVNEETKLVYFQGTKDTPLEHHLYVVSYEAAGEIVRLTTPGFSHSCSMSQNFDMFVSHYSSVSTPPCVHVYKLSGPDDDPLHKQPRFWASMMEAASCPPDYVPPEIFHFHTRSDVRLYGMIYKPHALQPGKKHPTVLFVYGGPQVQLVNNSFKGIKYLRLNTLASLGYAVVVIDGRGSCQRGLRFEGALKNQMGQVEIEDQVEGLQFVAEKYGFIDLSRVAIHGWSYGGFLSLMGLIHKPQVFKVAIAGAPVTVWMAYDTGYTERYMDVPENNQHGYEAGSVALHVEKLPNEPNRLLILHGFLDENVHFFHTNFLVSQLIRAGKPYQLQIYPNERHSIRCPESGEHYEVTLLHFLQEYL
T2 sequence (P0DMV8 whole entry): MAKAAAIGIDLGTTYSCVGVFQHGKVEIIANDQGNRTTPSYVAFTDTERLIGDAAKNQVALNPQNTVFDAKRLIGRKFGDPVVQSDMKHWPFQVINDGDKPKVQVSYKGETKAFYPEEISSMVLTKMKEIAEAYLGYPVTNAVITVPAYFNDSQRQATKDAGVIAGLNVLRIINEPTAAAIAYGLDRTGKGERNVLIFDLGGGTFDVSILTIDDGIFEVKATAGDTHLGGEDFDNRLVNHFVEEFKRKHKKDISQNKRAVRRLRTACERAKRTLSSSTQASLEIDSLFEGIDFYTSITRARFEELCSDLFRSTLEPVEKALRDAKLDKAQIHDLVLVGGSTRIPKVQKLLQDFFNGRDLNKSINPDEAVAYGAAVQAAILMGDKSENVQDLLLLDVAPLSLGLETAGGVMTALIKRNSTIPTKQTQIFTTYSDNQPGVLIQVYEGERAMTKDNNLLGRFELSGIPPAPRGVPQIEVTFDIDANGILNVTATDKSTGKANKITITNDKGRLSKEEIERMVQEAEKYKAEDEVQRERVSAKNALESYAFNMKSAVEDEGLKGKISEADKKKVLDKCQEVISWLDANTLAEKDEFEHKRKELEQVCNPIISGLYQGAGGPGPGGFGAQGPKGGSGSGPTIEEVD

| Compound | cell viability normalized for each condition seperately to corresponsing [-MMC +inhibitor] control (HeLa wild-type cells) | 95% confidence interval of difference (HeLa wild-type cells; [4]) | 95% confidence interval of difference (HeLa wild-type cells; [5]) | Log2-fold change (9/DMSO) [1] | Log2-fold change (9/DMSO) [2] | IC50 (PREP) | PREP activity (PREP; c 1562.5 nM) | PREP activity (PREP; c 3125 nM) | PREP activity (PREP; c 6250 nM) | PREP activity (PREP; c 25000 nM) | PREP activity (PREP; c 50000 nM) | PREP activity (PREP; c 100000 nM) | 95% confidence interval of difference ([3]; Figure 5c) | 95% confidence interval of difference ([3]; Figure S10a replicate 1) | 95% confidence interval of difference ([3]; Figure S10a replicate 2) | 95% confidence interval of difference ([3]; Figure S10a replicate 3) | effect on MMC-induced DPP9-BRCA2 PLA events ([3]; HeLa wild-type, 300 nM MMC 24 h, 10 µM inhibitor) | effect on cell viability / sensitivity to MMC (HeLa wild-type cells; HeLa wild-type, 1 µM MMC + 10 µM inhibitor, 72 h) | activity against PREP (PREP; within the nanomolar and low micromolar range (< 50 µM)) |
| --- | --- | --- | --- | --- | --- | --- | --- | --- | --- | --- | --- | --- | --- | --- | --- | --- | --- | --- | --- |
| CCCCCCP(=O)(OCC)N1CCC[C@H](N)C1=O (some centres unmarked) [Compound 5] | 58.346% and 64.1242% and 71.7486% and 57.5023% and 82.3895% and 73.7368% and 74.46% and 78.7587% and 61.0935% | -9,959 to 11,24 | -11,45 to 2,173 | – | – | – | – | – | – | – | – | – | – | – | – | – | – | – | – |
| C#CCCCP(=O)(OCC)N1CCCC(N)C1=O.O=C(O)C(F)(F)F (mixture of isomers) [Compound 9] | – | – | – | 0.9479 | 0.0845 | 13.4 µM | 90.6956% and 100.18% and 91.6611% | 81.4016% and 83.8359% and 86.7341% | 70.1184% and 68.121% and 70.2915% | 42.6998% and 39.4794% and 39.8185% | 17.1276% and 17.8294% and 21.3954% | 12.8608% and 13.0915% and 11.6555% | – | – | – | – | – | – | – |
| CCCCCc1ccc(SCCP(=O)(OCC)N2CCC[C@H](N)C2=O)cc1.O=C(O)C(F)(F)F (some centres unmarked) [Compound 16] | 56.5022% and 55.2183% and 55.934% and 53.6658% and 54.9944% and 49.1952% and 50.7013% and 59.4169% and 66.1488% | 1,107 to 22,31 | 1,930 to 15,55 | – | – | > 50 µM | 98.7862% and 85.8025% and 104.946% | 105.742% and 108.717% and 107.921% | 96.1256% and 97.1517% and 97.4675% | 92.3447% and 104.519% and 98.6461% | 66.9978% and 69.9305% and 64.8732% | 38.3396% and 47.6921% and 43.692% | -75,96 to -55,68 | -67,48 to -40,38 | -89,07 to -45,54 | -92,21 to -59,25 | significant reduction in the number of MMC-induced PLA events | increase in the sensitivity of cells to genotoxic stress; also recorded: clearly increased the sensitivity of cells to MMC | no activity against PREP |
